Data as given in publication PMC9570594, “Development of Novel Pyridine-Thiazole Hybrid Molecules as Potential Anticancer Agents” (Molecules, 2022).
Where two headings read alike, the source gives them in different places.

Experiments:
HCT-116 (colon) = test: MTT assay of cell viability
[1] = tested on: HCT-116 p53 (−/−) colon cancer cells; test: MTT assay of cell viability; details: Homo sapiens, HCT-116, 72 h
Description: The cell lines used in our work were kindly provided by a Collection at the Institute of Molecular Biology and Genetics, National Academy of Sciences of Ukraine (Kyiv, Ukraine).

MCF-7 (breast) = test: MTT assay of cell viability
Jurkat (leukemia) = test: MTT assay of cell viability; details: Homo sapiens, 72 h
A549 (lung) = test: MTT assay of cell viability; details: Homo sapiens, A549, 72 h
SK-OV-3 (ovarian) = test: MTT assay of cell viability; details: Homo sapiens, SK-OV-3, 72 h
KB3-1 (cervix) = test: MTT assay of cell viability
[2] = tested on: murine macrophages of J774.2 line; test: MTT assay of cell viability; details: Mus musculus, J774.2, 72 h
[3] = tested on: human epidermal keratinocytes of HaCaT line; test: MTT assay of cell viability; details: 72 h
[4] = tested on: panel of cancer cell lines; test: MTT assay, summary over the tumor cell lines; details: 72 h; for IC50: Homo sapiens, read-out: IC50 toward tumor cells (depending on tumor cell line)
KB3-1 cells = test: Fluorescent microscopy of morphological changes (Hoechst 33342/PI); assay type: cell-based, human; details: 48 h
Experimental: In addition, we observed multinucleated giant cells. […] The condensed chromatin, a characteristic feature of apoptosis, and dead cells were observed under the action of all studied compounds.
KB3-1 cells were seeded in the 12-well plates (CytoONE, STARLAB International GmbH, Hamburg, Germany) on glass microscopic slides and incubated overnight. Studied compounds were added to cells in the following concentrations: the compounds 3, 4 and cisplatin—5 µM/mL, doxorubicin—1 µM/mL. Cells were incubated for the next 48 h. Chromatin material of living and apoptotic cells was stained with the DNA-specific fluorescent dye Hoechst 33342 (Sigma-Aldrich, Burlington, MA, USA) and the DNA/RNA-specific fluorescent dye Propidium iodide (PI, Sigma, Burlington, MA, USA). Fluorochromes were added to cultured cells at final concentrations 0.2–0.5 μg/mL for Hoechst 33342 and 0.1 μg/mL—for PI. Images were made with a fluorescent Zeiss microscope (Carl Zeiss, Oberkochen, Germany). Magnification ×400. Microphotographs were additionally analyzed using ImagePro7N software.

MCF-7 cells [5] = test: PARP-1 inhibition in vitro: MTT after Fluzoparib pretreatment; assay type: cell-based, human; details: for IC50: Homo sapiens, MCF7
Experimental: Taking into account the above data, PARP1 inhibition in vitro was investigated using pretreatment of the MCF-7 cells with the Fluzoparib, a potent PARP1 inhibitor in the non-toxic concentrations of 5, 10, and 15 µM. It had no significant growth inhibitory effect in such doses, and a reduction of cell viability by only 10–12% was observed compared to control (non-treated) cells. […] The preincubation step was used to bind PARP1 molecules, which were the potential targets of the studied compounds and to test if it would affect the activity of 3 and 4. […] The preincubation of cells with the Fluzoparib decreased their sensitivity to the compound 3 treatment in a less pronounced manner, compared with the effect of the compound 4. […] Changes in structure of the started compound 3 may cause an enhancement of the ability of molecule 4 to inhibit the activity of PARP1.
To determine PARP inactivation, the MCF-7 cells were pretreated for 2 h in the non-toxic concentrations of 5, 10, 15 µM of the Fluzoparib (Med Chem Express, Monmouth Junction, NJ, USA), a potent PARP1 inhibitor used in the chemotherapy. Then, the medium was removed and increasing doses of the compounds 3 and 4 were added and cells were incubated for the next 72 h. The IC50 values of compounds were determined by the MTT assay, as described.

[6] = tested on: HL-60 cells of the acute human promyelocytic leukemia; test: MTT assay of cell viability
[7] = tested on: human embryonic kidney HEK293 cells; test: MTT assay of cell viability; details: HEK293, 72 h
[8] = tested on: BALB-3T3 (normal mouse fibroblasts); test: MTT assay of cell viability; details: BALB/3T3, 72 h
[9] = tested on: pseudo-normal cell lines (HEK293, HaCaT); test: MTT assay, summary over pseudo-normal cell lines; details: Homo sapiens, 72 h, read-out: IC50 towards pseudo-normal cell lines
CCRF-CEM (Leukemia) = test: NCI one-dose SRB assay; assay type: cell-based, human; details: 10 μM, 48 h
HL-60(TB) (Leukemia) = test: NCI one-dose SRB assay; assay type: cell-based, human; details: 10 μM, 48 h
MDA-MB-435 (Melanoma) = test: NCI one-dose SRB assay; assay type: cell-based, human; details: 10 μM, 48 h
[10] = tested on: MDA-MB-468 (Brest Cancer); test: NCI one-dose SRB assay; assay type: cell-based, human; details: 10 μM, 48 h
[11] = tested on: NCI-H522 (Non-Small Cell Lung Cancer); test: NCI one-dose SRB assay; details: 10 μM, 48 h
Experimental: (§1) Primary anticancer assays (Table 3) on a panel of 60 cancer cell lines at one dose-assay (10^−5 M) were performed according to the NCI protocol, as described elsewhere [31, 32, 33, 34, 35].
(§2) A primary anticancer assay was performed on a panel of approximately sixty human tumor cell lines derived from nine neoplastic diseases, in accordance with the protocol of the Drug Evaluation Branch, National Cancer Institute, Bethesda [31, 32, 33, 34, 35]. Tested compounds were added to the culture at a single concentration (10^−5 M) and the cultures were incubated for 48 h. End point determinations were made with a protein binding dye, Sulphorhodamine B (SRB). […] The percentage growth was evaluated spectrophotometrically versus controls not treated with test agents.

K-562 (Leukemia) = test: NCI one-dose SRB assay; details: 10 μM, 48 h
Experimental: as §1, §2

SR (Leukemia) = test: NCI one-dose SRB assay; details: 10 μM, 48 h
Experimental: as §1, §2

[12] = tested on: panel of 60 cancer cell lines; test: NCI DTP one-dose primary anticancer assay (10^-5 M, SRB); details: 10 μM; for Range of Growth, %: 48 h, 60 cell lines; for Positive Cytostatic Effect: number of cell lines with percent growth from 0 to 50 / total number of cell lines; for Positive Cytotoxic Effect: number of cell lines with percent growth of <0 / total number of cell lines
Experimental: as §1, §2

SK Mel-5 (Melanoma) = test: NCI one-dose SRB assay; details: 10 μM, 48 h
Experimental: (§3) Tested compounds were added to the culture at a single concentration (10^−5 M) and the cultures were incubated for 48 h. End point determinations were made with a protein binding dye, Sulphorhodamine B (SRB). […] The percentage growth was evaluated spectrophotometrically versus controls not treated with test agents.

T-47D (Brest Cancer) = test: NCI one-dose SRB assay; details: 10 μM, 48 h
Experimental: as §3

[13] = tested on: MCF-7 breast cancer cells; test: Mitochondrial membrane potential, JC-1 (flow cytometry); assay type: cell-based, human; details: MCF-7, 5 µM, 24 h, control 5.1 ± 0.7%
Experimental: A decrease in the mitochondrial membrane potential (MMP, ΔΨm) is one of the earliest changes observed at apoptosis. […] The MCF-7 cells had depolarized mitochondria, reaching 25.3 ± 1.5% and 24.7 ± 0.4% of the cell population treated with the compound 4 and 7, respectively. In the control, there were only 5.1 ± 0.7% cells with a decreased ΔΨm.
Disruption of the MMP was assessed using the lipophilic cationic probe 5,5,6,6-tetrachloro-1,1,3,3-tetraethylbenzimidazolcarbocyanine iodide (JC-1 MitoScreen kit; BD Biosciences San Diego, CA, USA), as described previously. The entire assay was performed according to the manufacturer’s instructions provided with the purchased kit. […] Briefly, unfixed MCF-7 cells were washed and resuspended in the PBS supplemented with the JC-1 dye. Then, cells were incubated for 15 min at room temperature (RT) in the dark, washed, and resuspended in the PBS for the immediate BD FACSCanto II flow cytometry analysis.

[14] = tested on: MCF-7 breast cancer cells; test: Annexin V-FITC/PI binding assay (flow cytometry); details: MCF-7, 5 µM, 24 h; control 4.4 ± 0.6%
Experimental: Annexin V-FITC and Propidium Iodide were used for apoptosis measurement.
Apoptosis was determined, as described [42], using Annexin V-FITC binding by means of the FITC Annexin V Apoptosis Detection Kit II(BD Biosciences, San Diego, CA, USA) according to the manufacturer’s instruction. Cells (10,000 cell measured) were analyzed in a BD FACSCanto II flow cytometer (BD Biosciences, San Diego, CA, USA). Annexin V binds with high affinity to phosphatidylserine, and thus, can be used to identify cells in all stages of the programmed cell death. Propidium iodide (PI) exclusively stains cells with a disrupted cell membrane and can be used to identify late apoptotic and dead cells. Cells cultured in a drug-free medium were used as controls. […] The contents of the test tubes were gently vortexed and incubated for 15 min at room temperature, protected from light. After the required time, the contents of the test tubes were made up to 500 µL with the Binding Buffer and immediately analyzed in a flow cytometer. The ratio of the apoptotic cells (early and late) was measured as: a percentage of cells from the upper right square (color red) to percentage of cells from the lower right square (color blue). Analysis was performed using the BD FACSCanto II flow cytometer, and the results were analyzed with FACSDiva software (both from BD Biosciences Systems, San Jose, CA, USA). […]

MCF-7 cells [15] = test: Clonogenic assay; assay type: cell-based, human; details: MCF-7, positive control, concentration not given, 10 days
Experimental: This assay essentially tests every cell in the population for its ability to undergo “unlimited” division. […] At 1 µM concentration, it reduced the ability of the MCF-7 single cell to grow into a colony to 36%. […] With a concentration equivalent to 10 µM of the compound 4, the DMSO increased the cell’s ability to grow in colony.
MCF-7 cells were seeded in triplicate in 6-well plates (CytoONE, STARLAB International GmbH, Germany) at a density of 500 cells per well. After 24 h incubation, the compound 4 was added in 1 and 10 μM concentrations and cells were treated for 10 days. Colonies containing ≥ 50 cells were fixed with 50% (v/v) methanol in the PBS and stained with crystal violet (Sigma-Aldrich, Burlington, MA, USA). Stained colonies were counted and expressed as a fraction of the untreated control.

[16] = Homo sapiens, HCT-116, 72 h, HCT-116, 72 h of incubation, M ± SD
[17] = Homo sapiens, MCF7, 72 h, MCF-7, 72 h of incubation, M ± SD
[18] = Homo sapiens, KB 3-1, 72 h, KB3-1, 72 h of incubation, M ± SD
[19] = HCT-116, 72 h of incubation, M ± SD
[20] = MCF-7, 72 h of incubation, M ± SD
[21] = HL-60, 72 h of incubation, M ± SD

Structure (SMILES)	IC50 (HCT-116 (colon); [16]) [µM]	IC50 [1] [µM]	IC50 (MCF-7 (breast); [17]) [µM]	IC50 (Jurkat (leukemia)) [µM]	IC50 (A549 (lung)) [µM]	IC50 (SK-OV-3 (ovarian)) [µM]	IC50 (KB3-1 (cervix); [18]) [µM]	IC50 [2] [µM]	IC50 [3] [µM]	IC50 [7] [µM]	IC50 [8] [µM]	other results
CC(=O)c1sc(Nc2ccccn2)nc1C [Compound 2, 1-[4-Methyl-2-(2-pyridylamino)thiazol-5-yl]ethanone]	> 50	> 50	> 50	> 50	> 50	> 50	38 ± 1.9	> 50	> 50	–	–	IC50 [4]: > 50 µM
Cc1nc(Nc2ccccn2)sc1C(=O)/C=C/c1ccccc1F [Compound 3, (E)-3-(2-Fluorophenyl)-1-[4-methyl-2-(2-pyridylamino)-thiazol-5-yl]-2-propen-1-one]	–	2.81 ± 0.16	–	5.2 ± 0.1	4.56 ± 0.22	> 50	7.42 ± 0.22	> 50	> 50	> 50	7.18 ± 0.21	morphological changes (KB3-1 cells; KB3-1, 5 µM): significantly less DNA damage; IC50 (MCF-7 cells [5]; MCF-7, compound alone (no preincubation), 72 h MTT, read-out: IC50): 3.9 µM; IC50 (HCT-116 (colon); [19]): 2.9 ± 1.03 µM; IC50 (MCF-7 (breast); [20]): 1.86 ± 0.9 µM; IC50 [6, 21]: 0.57 ± 0.35 µM; IC50 [4]: 0.57 to 7.8 µM; IC50 [9]: > 50 µM
Cc1nc(Nc2ccccn2)sc1C1=NNC(c2ccccc2F)C1 (stereo not drawn) [Compound 5, {5-[5-(2-Fluorophenyl)-4,5-dihydro-1H-pyrazol-3-yl]-4-methylthiazol-2-yl}-(pyridin-2-yl)-amine]	> 50	34.5 ± 1.02	> 50	> 50	33.1 ± 1.32	> 50	13.1 ± 0.52	> 50	> 50	45.4 ± 2.26	34.2 ± 1.7	Growth % (CCRF-CEM (Leukemia)): 19.12%; Growth % (HL-60(TB) (Leukemia)): 4.96%; Growth % (MDA-MB-435 (Melanoma)): −17.91%; Growth % [10]: −13.74%; Growth % [11]: −18.90%; Growth % (K-562 (Leukemia)): 15.13%; Growth % (SR (Leukemia)): 12.44%; Range of Growth, % [12]: −18.90–118.83%; Positive Cytostatic Effect [12]: 25/60; Positive Cytotoxic Effect [12]: 3/60
CC(=O)N1N=C(c2sc(Nc3ccccn3)nc2C)CC1c1ccccc1F (stereo not drawn) [Compound 6, 1-{5-(2-Fluorophenyl)-3-[4-methyl-2-(2-pyridylamino)-thiazol-5-yl]-4,5-dihydropyrazol-1-yl}-ethanone]	> 50	29.1 ± 1.45	45.4 ± 2.2	> 100	63.4 ± 3.81	39.6 ± 2.37	24.9 ± 0.74	> 50	> 50	–	–	Growth % (K-562 (Leukemia)): 15.62%; Growth % (SR (Leukemia)): 12.53%; Growth % (SK Mel-5 (Melanoma)): 17.75%; Growth % (T-47D (Brest Cancer)): 14.27%; Range of Growth, % [12]: 12.53–95.32%; Positive Cytostatic Effect [12]: 32/59; Positive Cytotoxic Effect [12]: 0/59
CS(=O)(=O)O.Cc1nc(Nc2ccccn2)sc1C(=O)/C=C/c1ccccc1F [Compound 7, (E)-3-(2-Fluorophenyl)-1-[4-methyl-2-(pyridin-1-ium-2-ylamino)thiazol-5-yl]-2-propen-1-one Methanesulfonate]	–	–	–	–	–	–	–	–	–	–	–	cells with depolarized mitochondria (decreased ΔΨm) [13]: 24.7 ± 0.4%; IC50 (HCT-116 (colon); [19]): 7.27 ± 0.27 µM; IC50 (MCF-7 (breast); [20]): 4.3 ± 0.98 µM; IC50 [6, 21]: > 10 µM; IC50 (KB3-1 (cervix); KB3-1, 72 h of incubation, M ± SD): 3.96 ± 1.23 µM; IC50 toward tumor cells (depending on tumor cell line) ([4]; summary over tumor cell lines, MTT): acted more weakly compared with 3 and 4; apoptotic cells (sum of early and late apoptotic cells) [14]: 31.0 ± 1.9%
COc1cccc2c1C(=O)c1c(O)c3c(c(O)c1C2=O)C[C@@](O)(C(=O)CO)C[C@@H]3O[C@H]1C[C@H](N)[C@H](O)[C@H](C)O1 [Doxorubicin, reference compound]	–	1.19 ± 1.3	–	1.17 ± 0.12	2 ± 0.35	3.2 ± 0.1	–	1.74 ± 1.1	> 10	1.29 ± 0.87	3.18 ± 0.25	ability of single cell to grow into a colony (compared with control) (MCF-7 cells [15]): 3%; morphological changes (KB3-1 cells; KB3-1, 1 µM): induced cell membrane damage and membrane blebbing to a greater extent; IC50 (HCT-116 (colon); Homo sapiens, HCT-116, 72 h): 0.9 ± 0.09 µM; IC50 (MCF-7 (breast); Homo sapiens, MCF7, 72 h): 1.04 ± 0.8 µM; IC50 ([6]; Homo sapiens, HL-60, 72 h): 0.38 ± 0.5 µM; IC50 (KB3-1 (cervix); Homo sapiens, KB 3-1, 72 h): 4 ± 1.3 µM
O=C(c1cc(Cc2n[nH]c(=O)c3ccccc23)ccc1F)N1CCn2nc(C(F)(F)F)nc2C1 [Fluzoparib, reference compound]	–	–	–	–	–	–	–	–	–	–	–	IC50 (MCF-7 cells [5]): 47 µM; reduction of cell viability (MCF-7 cells [5]; MCF-7, 5, 10 and 15 µM, compared to non-treated cells): 10–12%
N.N.[Cl][Pt][Cl] [cisplatin, reference compound]	–	–	–	–	–	–	–	–	–	–	–	morphological changes (KB3-1 cells; KB3-1, 5 µM): significantly less DNA damage
